{"source": "patent US20040258772A1", "about": "“Methods of treating angiogenesis, tumor growth, and metastasis” (priority 2002, published 2004)", "key": {"[1]": {"test_system": "Human adenocarcinoma cells (A549)", "assay_type": "cell-based", "conditions": "250 ppm CO", "description": "(§1) A human adenocarcinoma cell line designated A549, a murine mesothelioma cell line designated AC29, and a human colon cancer cell line designated HCT were utilized for the studies described herein.\n(§2) Cell cultures and mice were exposed to CO at a concentration of 250 ppm. Briefly, 1% CO in air was mixed with air (21% oxygen) in a stainless steel mixing cylinder and then directed into a 3.70 ft^3 glass exposure chamber at a flow rate of 12 L/min. A CO analyzer (Interscan, Chatsworth, Calif.) was used to measure CO levels continuously in the chamber. CO concentrations were maintained at 250 ppm at all times. Cell cultures and mice were placed in the exposure chamber as required.\n(§3) For [^3H] thymidine incorporation studies, cells were serum-starved overnight and then stimulated with 20% serum containing 5 mCi/ml [^3H] thymidine (New England Nuclear, Boston, Mass.). [^3H] thymidine incorporation was measured by scintillation spectroscopy. CO inhibits the growth of cancer cells in vitro Human and mouse cancer cell lines were used to investigate the effect of CO on growth rates of the cells in culture. Human adenocarcinoma cells (A549), mouse mesothelioma cells (AC29), and A549 and AC29 cells transformed with the heme oxygenase-1 (HO-1) gene (which causes the cells to overexpress HO-1) were exposed to low levels of CO (250 ppm) in culture. Four-day growth curves were generated."}, "[2]": {"test_system": "mouse mesothelioma cells (AC29)", "test": "Growth curves of cancer cells in culture exposed to CO", "assay_type": "cell-based", "description": "as §1, §2\nas §3, with “Four-day growth curves were generated.” left out"}, "AC29 cells": {"test_system": "AC29 cells", "test": "Mesothelioma (AC29) survival model, cells injected intraperitoneally", "assay_type": "in vivo, CBA mice", "description": "(§4) For human tumor studies, female SCID mice (weighing 20 to 30 g) were purchased from Taconic (White Plains, N.Y.) and allowed to acclimate for 1 week prior to experimentation. For murine tumor and matrigel studies, male CBA and C57B1/6 mice (weighing 25 to 30 g) were purchased form Jackson Labs (Bar Harbor, Me.) and also were allowed to acclimate for 1 week prior to experimentation.\nas §2\nThe first was a mesothelioma (AC29) model, wherein CBA mice were injected with 1×10^6 AC29 cells intraperitoneally and monitored for survival when continuously exposed to air or to an atmosphere containing 250 ppm CO for a period of six weeks. […] The survival rate of the CO-exposed mice was increased by greater than 90% as compared to air-exposed mice. The arrow shown in FIG. 3 denotes a time point at which half of the CO-exposed mice were removed from the CO chamber. Half of the mice were removed at that time to determine whether the effects of CO on mouse survival require continuous exposure to CO. A significant number of mice (50%, p<0.02) that were removed from the CO-containing atmosphere remained alive at the end of the experiment, whereas all air treated mice died by day 36. The number of mice in each group was 12 to 20 animals.\nIn another experiment, it was shown that CO-exposed mice survived for greater than 65 days (data not shown)."}, "A549 cells [3]": {"test_system": "A549 cells", "test": "Adenocarcinoma (A549) subcutaneous tumor model", "assay_type": "in vivo, SCID mice", "description": "as §4, §2\nThe second model was an adenocarcinoma (A549) model, wherein SCID mice were injected with 1×10^6 A549 cells subcutaneously. These animals were continuously exposed to air or to 250 ppm of CO for a period of six weeks. After the six-week period, the volume of the tumors that developed in the mice was evaluated."}, "A549 cells [4]": {"test_system": "A549 cells", "test": "[3H] thymidine uptake, cGMP dependence of CO-induced growth arrest", "assay_type": "cell-based, human", "conditions": "CO 250 ppm 3 hours before and 24 hours after serum; compared to CO alone", "method": "as §3\nThe cellular mechanisms by which CO causes inhibition were also investigated. To investigate whether CO-induced growth arrest is CGMP dependant, A549 cells were exposed to air, CO, CO+ODQ, or CO+Rp-8-BR. […] The ability of the cells to proliferate was determined by measuring the uptake of [3H] thymidine by the cells (FIG. 5). Cells were exposed to CO (250 ppm) for 3 hours prior to the addition of serum and [3H] thymidine (5 mCi/ml). After the addition of serum and [3H] thymidine, cells were maintained in CO for 24 hours. Cells were then rinsed, fixed and examined by scintillation spectroscopy."}, "HTC cells": {"test_system": "HTC cells", "test": "[3H] thymidine uptake in wild-type and p21-deficient colon cancer cells", "assay_type": "cell-based, human", "conditions": "p21-/- HTC cells versus wild type", "method": "as §3\nWild-type (Wt) HTC cells and HTC cells deficient in p21 (p21−/−), a gene known to control cell growth, were exposed to air or CO to determine whether p21 is involved in CO-induced growth arrest (FIG. 6). As indicated by [^3H] thymidine uptake, CO-induced growth arrest appears less marked in HTC cells that are deficient in p21."}, "[5]": {"test_system": "p21, p27, PCNA, Cdc25b, cyclin D1 in A549 cells", "test": "Immunoblot of growth/cell cycle proteins", "assay_type": "cell-based, human", "method": "Immunoblotting was performed to investigate protein expression by standard methods known in the art. Antibodies were purchased from Santa Cruz, StressGen and Cell Signaling.\nTo investigate CO-induced changes in the expression of various growth/cell cycle proteins in cancer cells, A549 cells were exposed for 24 hours to air or CO (250 ppm). After this period of exposure, cell lysates were collected from the cells and changes in protein expression in the lysates were examined by immunoblot."}, "[6]": {"test_system": "VEGF production by A549 cells", "test": "VEGF production by ELISA", "assay_type": "cell-based, human", "conditions": "CO plus air for 24 to 48 hours vs air alone", "method": "ELISA kits for VEGF levels were purchased from R&D Systems and used according to the manufacturer's directions.\nWhether CO inhibits production of VEGF, a growth factor that contributes to angiogenesis by promoting blood vessel growth, was investigated. A549 cells were exposed to air or CO plus air for 24 to 48 hours in vitro, and VEGF production by A549 cells was detected using an enzyme-linked immunosorbent assay (ELISA)."}, "angiogenesis": {"test_system": "angiogenesis", "test": "Matrigel angiogenesis assay, FGF/heparin Matrigel implanted under the skin", "assay_type": "in vivo, C57/B16 mice", "description": "as §4, §2\nThe effect of CO (250 ppm) on angiogenesis was investigated using a Matri gel […] angiogenesis assay. A solubilized basement membrane matrix (Matrigel™) containing 20 ng/ml growth factor (FGF) and heparin was implanted under the skin of C57/B16 mice. The mice were then exposed to air or CO in air for two weeks. After the two-week period, the Matrigel™ was removed and examined.\nIn a separate experiment, Matrigel™ deposits containing 20 ng/ml growth factor (FGF) and heparin were implanted under the skin of C57/B16 mice, and the mice were exposed to air or CO (250 ppm) in air for 21 days. Photomicrographs of hematoxylin- and eosin-stained paraffin sections from the resected subcutaneous FGF-Matrigel deposits were prepared. Prominent angiogenesis was evident in deposits from air-exposed mice, as was a front of infiltrating vascular cells organizing into blood filled micro-capillaries (data not shown)."}, "[7]": {"test_system": "A549 cells transformed to overexpress HO-1", "test": "A549 HO-1 overexpressing tumor model", "assay_type": "in vivo, mice", "conditions": "50 μmol/kg s.c., data not shown", "method": "The third model was also an A549 model, wherein mice were injected with A549 cells transformed to overexpress HO-1 (HO-1 clones A5 and L1). After the six-week period, the size and volume of tumors that developed in the mice were evaluated. […] Using Western blot analysis, the relative decrease in volume was determined to correlate with a relative decrease in expression of cyclin D1, a protein involved in the regulation of cell growth (data not shown)."}}, "note": "Entries after “also recorded” stand apart in the source; their conditions may differ."}
{"molecule": "[C-]#[O+]", "note": "[CO, carbon monoxide]", "values": [{"measurement": "toxicity as cause of reduced cell numbers", "setting": "[1]; A549 and AC29 cultures, confluency eventually achieved", "result": "not due to toxicity"}, {"measurement": "reduction in cell number", "setting": "[1]; by three days, compared to controls", "result": "> 40", "unit": "%"}, {"measurement": "reduction in cell number", "setting": "[2]; 250 ppm CO, by three days, compared to controls", "result": "> 40", "unit": "%"}, {"measurement": "proliferation after removal from CO-containing atmosphere", "setting": "[2]; cultures removed from CO at day 5", "result": "proliferate at a normal rate"}, {"measurement": "proliferation of AC29 cells", "setting": "[2]; six-day growth curve, CO vs air", "result": "inhibits the proliferation"}, {"measurement": "increase of survival rate", "setting": "AC29 cells; 250 ppm CO, compared to air-exposed mice", "result": "greater than 90%"}, {"measurement": "survival", "setting": "AC29 cells; CO treatment delayed until one week after injection of mesothelioma cells", "result": "prolonged the lives; also recorded: prolongs survival"}, {"measurement": "survival time", "setting": "AC29 cells; another experiment, data not shown", "result": "greater than 65 days"}, {"measurement": "survival", "setting": "AC29 cells; continuous 250 ppm CO for six weeks vs air", "result": "lived longer; also recorded: prolongs survival"}, {"measurement": "mice removed from CO-containing atmosphere alive at end of experiment", "setting": "AC29 cells; half of CO-exposed mice removed from chamber, p<0.02, all air treated mice died by day 36", "result": 50, "unit": "%"}, {"measurement": "tumor volume", "setting": "A549 cells [3]; CO plus air vs air alone", "result": "reduced"}, {"measurement": "reduction of tumor volume", "setting": "A549 cells [3]; continuous 250 ppm CO for six weeks, compared to air-exposed mice", "result": "greater than 50%"}, {"measurement": "uptake of [3H] thymidine (proliferation)", "setting": "A549 cells [4]", "result": "growth arrest"}, {"measurement": "CO-induced growth arrest ([3H] thymidine uptake)", "setting": "HTC cells", "result": "less marked"}, {"measurement": "expression of p21, p27, PCNA, Cdc25b and cyclin D1", "setting": "[5]; 250 ppm CO for 24 hours", "result": "causes changes in expression"}, {"measurement": "expression of p21", "setting": "[5]; CO for 4, 8 and 24 hours", "result": "causes changes in expression"}, {"measurement": "VEGF production", "setting": "[6]", "result": "substantially less VEGF; also recorded: inhibits"}, {"measurement": "cellularity and blood in Matrigel deposits", "setting": "angiogenesis; 250 ppm CO in air for 21 days", "result": "paucity of cellularity and blood"}, {"measurement": "angiogenesis in Matrigel deposits", "setting": "angiogenesis; 250 ppm CO in air for 21 days, H&E sections", "result": "No angiogenesis was evident"}, {"measurement": "angiogenesis in Matrigel", "setting": "angiogenesis; 250 ppm CO in air for two weeks, data not shown", "result": "no new blood vessel growth"}]}
{"molecule": "C=Cc1c2[n-]c(c1C)/C=c1\\[n-]/c(c(C)c1C=C)=C\\c1[n-]c(c(CCC(=O)O)c1C)/C=c1\\[n-]c(c(C)c1CCC(=O)O)=C2.[Sn+4]", "note": "[tin protoporphyrin]", "values": [{"measurement": "effect on the inhibition of tumor growth by HO-1 overexpression", "setting": "[7]", "result": "reversible"}]}
